Experimental data from patent publication US10710986B2, “PD-1/PD-L1 inhibitors” (Gilead Sciences, Inc., priority 2018, dated 2020).
“And” between values parts separate entries of the source, which are not always exact repeats. Equal entries are not always repeated.

Tests used:
[1] = tested on: HBV-specific CD8^+ T cells; assay: IFN-γ and granzyme B production in HBV-specific CD8+ T cells from CHB patient PBMCs (7-day expansion and recall, flow cytometry); type: cell-based, human
Protocol: PBMCs were isolated from whole blood using a standard Ficoll® Paque gradient. Briefly, 25-30 mL of blood was gently overlaid on top of 15 mL Ficoll® Paque Plus solution (GE Healthcare, Chicago, Ill.) in a 50 mL Falcon tube, and centrifuged in an Allegra X-14R (Beckman Coulter, Indianapolis, Ind.) at 520 g for 20 minutes at 25° C. […] Next, the cells were centrifuged at 520 g for 5 minutes and red blood cells (RBC) lysed for 5 minutes at room temperature using RBC Lysis Buffer (eBioscience, San Diego, Calif.). […] PBMCs were either subsequently used for the T cell expansion assay, or were cryopreserved with 10% DMSO in FBS before further use.
PBMCs were seeded at 2-4×10^5 cells/well in 96-well round bottom plates (Corning, N.Y.). […] PBMCs were incubated for 7 days at 37° C. with 5% CO2 in a humidified incubator. […] To inhibit protein transport, 1 μg/mL brefeldin. A solution (Sigma) was added to each well. After overnight incubation, cells were processed for immunostaining and flow cytometry as described herein.
Washed cells were resuspended in Live/Dead Aquamine Stain (Invitrogen) per manufacturer's instructions to determine the viability of the cells by flow cytometry. Live/Dead Aqua stained PBMCs were washed twice with FACS staining buffer (1% FBS in PBS), and then incubated with 50 μL of Fc blocking reagent (BD Biosciences, Franklin Lakes, N.J.) for 10 minutes at room temperature. A mixture of antibodies (50 μL/well) described in Table 6 were added to the blocking solution for surface staining, and PBMCs were incubated with the antibodies for 40 minutes at 4° C. […] Cells were washed twice with the permeabilization reagent included in the FoxP3 staining kit and incubated with antibodies for intracellular staining of IFN-γ and GrB (Table 6) at 1.0 μg/mL. After 1 hour incubation at 4° C., PBMCs were centrifuged and washed twice before being resuspended in FACS buffer. Stained PBMCs were analyzed by flow cytometry using a BD LSRFortessa X-20 Cell Analyzer (Becton Dickinson). BD Comp Beads (BD Biosciences) were used as compensation controls. CD8^+ and CD4^+ T cells were identified by gating on the live Aquamine ^−CD3^+CD8^+ and Aquamine-CD3+CD4^+ PBMC population respectively.
Flow cytometry data was analyzed using FlowJo Flow Cytometry Analysis Software v10 (TreeStar, Ashland, Oreg.). Data was exported and statistical analysis was performed using GraphPad Prism v6 (GraphPad Software, La Jolla, Calif.). Statistical significance relative to the DMSO control was calculated by two-tailed, paired t-test.

PD-1/PD-L1 = PD-1/PD-L1 (Homo sapiens (Human), UniProt Q9NZQ7); assay: PD-1/PD-L1 biochemical protein-protein interaction assay (ALPHA); details: 0.3 nM His tagged PD-L1, 2.5 nM biotinylated Fc-PD-1, 60 minutes at 25° C., read-out: IC50 PD-L1-PD1
Chain of PD-1/PD-L1 (Q9NZQ7 19-238): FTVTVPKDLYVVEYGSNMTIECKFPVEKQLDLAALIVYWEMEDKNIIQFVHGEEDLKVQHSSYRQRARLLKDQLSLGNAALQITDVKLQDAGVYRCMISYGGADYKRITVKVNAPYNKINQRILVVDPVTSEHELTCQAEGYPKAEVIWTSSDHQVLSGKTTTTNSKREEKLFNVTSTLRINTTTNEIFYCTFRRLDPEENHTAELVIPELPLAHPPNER

[2] = 650 nM, HBV core peptide-stimulated PBMCs from 14 CHB donors
[3] = PBMCs from 9 of the 14 CHB donors, compound 139 650 nM, durvalumab 10 μg/mL
[4] = average over CHB donors (14 for compound 139, 9 for durvalumab)
[5] = individual CHB donor, HBV core peptide-stimulated PBMCs, compound 139 at 650 nM

SMILES | increase of frequency of GrB^+ CD8^+ T cells compared with DMSO [1, 2] [fold] | increase of frequency of IFN-γ^+ CD8^+ T cells compared with DMSO [1, 2] [fold] | increase of GrB^+ CD8^+ T cells, comparison with durvalumab [1, 3] [fold] | increase of IFN-γ^+ CD8^+ T cells, comparison with durvalumab [1, 3] [fold] | % GrB+ (GrB+ CD8+ T cells), Average [1, 4] [%] | % IFN-γ+ (IFN-γ+ CD8+ T cells), Average [1, 4] [%] | % GrB+ (GrB+ CD8+ T cells) [1, 5] | % IFN-γ+ (IFN-γ+ CD8+ T cells) [1, 5] | IC50 (PD-1/PD-L1) [nM]
COc1nc(-c2cccc(-c3cccc(-c4cnc(CNC[C@@H]5CCC(=O)N5)c(OC)n4)c3Cl)c2Cl)cnc1CNC[C@@H]1CCC(=O)N1 [compound 139] | 1.2 | 2.5 | 1.2 | 2.5 | 33.68 | 3.13 | 47.80% and 8.78% and 50.30% and 30.67% and 28.15% and 24.10% and 45.05% and 20.20% and 33.50% and 52.67% and 18.93% and 23.23% and 55.80% and 32.30% | 2.63% and 0.94% and 0.41% and 0.61% and 3.06% and 0.90% and 3.28% and 4.69% (2×) and 0.30% and 7.74% and 1.86% and 11.17% and 1.53% | 
COc1nc(-c2cccc(-c3cccc(-c4cnc(CNC[C@@H]5CCC(=O)N5)c(OC)n4)c3Cl)c2Cl)ccc1CN[C@@H]1CNC(=O)C1 [compound 167] |  |  |  |  |  |  |  |  | 0.262
COc1nc(-c2cccc(-c3cccc(-c4cnc(CN[C@H]5CC[C@H](O)C5)c(OC)n4)c3Cl)c2Cl)cnc1CNC[C@@H]1CCC(=O)N1 [compound 355] |  |  |  |  |  |  |  |  | 0.129
